The test system of one assay is Staphylococcus aureus. Kind of assay: Inhibition of C-terminal hexahistidine-tagged recombinant Staphylococcus aureus Ddl expressed in Escherichia coli BL21(DE3) assessed as remaining activity using D-Ala as substrate at 250 uM incubated for 5 mins in presence of ATP by antimony phosphomolybdate assay (reference value: 100+/-2%).
The nature of assay [1]: Inhibition of C-terminal hexahistidine-tagged recombinant Staphylococcus aureus Ddl expressed in Escherichia coli BL21(DE3) using D-Ala as substrate in presence of ATP by PK/LDH couples assay.

Structures are written as SMILES.

As for `Cc1ccc(CCCOC(=O)NS(=O)(=O)NCC[C@H]2O[C@@H](n3cnc4c(N)ncnc43)[C@H](O)[C@@H]2O)cc1`, the Activity in the assay on Staphylococcus aureus is 82%. In the case of `N[C@@H]1CONC1=O` [CYCLOSERINE], the Activity with Staphylococcus aureus was 35%. Further, the IC50 in assay [1] was 100 µM. `Nc1ncnc2c1ncn2[C@@H]1O[C@H](CCNS(=O)(=O)NC(=O)OCCc2ccc(Cl)c(Cl)c2)[C@@H](O)[C@H]1O`: the Activity in the assay with Staphylococcus aureus was found to be 85%. Regarding `Nc1ncnc2c1ncn2[C@@H]1O[C@H](CCNS(=O)(=O)NC(=O)OCCc2ccccc2F)[C@@H](O)[C@H]1O`, in the assay with Staphylococcus aureus, the Activity was determined as 84%. Turning to `COc1ccc(CCCCOC(=O)NS(=O)(=O)NCC[C@H]2O[C@@H](n3cnc4c(N)ncnc43)[C@H](O)[C@@H]2O)cc1`, in the assay with Staphylococcus aureus, the Activity was 90%.

`CC(C)(C)OC(=O)NS(=O)(=O)NCC[C@H]1O[C@@H](n2cnc3c(N)ncnc32)[C@@H]2OC(C)(C)O[C@@H]21`: the Activity with Staphylococcus aureus is 91%. For `CC1CNCCN1CCOC(=O)NS(=O)(=O)NCC[C@H]1O[C@@H](n2cnc3c(N)ncnc32)[C@H](O)[C@@H]1O` (stereo partly drawn), the Activity in the assay with Staphylococcus aureus is 76%. Besides, in assay [1], the IC50 is more than 2500 µM. The like results for `Nc1ncnc2c1ncn2[C@@H]1O[C@H](CCNS(=O)(=O)NC(=O)OCCc2ccccc2)[C@@H](O)[C@H]1O` were, in that order, 80% and more than 2500 µM. Turning to `COc1ccc(CCOC(=O)NS(=O)(=O)NCC[C@H]2O[C@@H](n3cnc4c(N)ncnc43)[C@H](O)[C@@H]2O)cc1`, the Activity in the assay on Staphylococcus aureus was 89%. In the case of `Nc1ncnc2c1ncn2[C@@H]1O[C@H](CCNS(=O)(=O)NC(=O)OCCCc2ccc(Cl)cc2)[C@@H](O)[C@H]1O`, in the assay with Staphylococcus aureus, the Activity worked out at 96%. In the case of `Nc1ncnc2c1ncn2[C@@H]1O[C@H](CCNS(N)(=O)=O)[C@@H](O)[C@H]1O`, in the assay with Staphylococcus aureus, the Activity stood at 72%. Further, the half-maximal inhibitory concentration (IC50) in assay [1] came out at 1600 µM. Regarding `Nc1ncnc2c1ncn2[C@@H]1O[C@H](CCNS(=O)(=O)NC(=O)OCCc2ccccc2Cl)[C@@H](O)[C@H]1O`, the Activity in the assay on Staphylococcus aureus amounted to 87%.

Regarding `Nc1ncnc2c1ncn2[C@@H]1O[C@H](CCNS(=O)(=O)NC(=O)OCCc2cccc(Cl)c2)[C@@H](O)[C@H]1O`, the Activity in the assay with Staphylococcus aureus was found to be 91%. As to `CC(C)(C)OC(=O)N[C@@H]1CON(CCO)C1=O`, the Activity in the assay with Staphylococcus aureus is 90%.

Take `Nc1ncnc2c1ncn2CCCCNS(=O)(=O)NC(=O)OCCc1ccc(Cl)c(Cl)c1`: in the assay with Staphylococcus aureus, the Activity came to 110%. For `Nc1ncnc2c1ncn2[C@@H]1O[C@H](CCNS(=O)(=O)NC(=O)OCCCC2CCCC2)[C@@H](O)[C@H]1O`, the Activity in the assay on Staphylococcus aureus turned out to be 79%. Also, the IC50 in assay [1] is more than 2500 µM. Consider `NCC[C@H]1O[C@@H](n2cnc3c(N)ncnc32)[C@H](O)[C@@H]1O`, for which, in the assay with Staphylococcus aureus, the Activity turned out to be 63%. Besides, the IC50 in assay [1] amounted to 2200 µM. In the case of `Nc1ncnc2c1ncn2[C@@H]1O[C@H](CCNS(=O)(=O)NC(=O)OCCN2OC[C@@H](N)C2=O)[C@@H](O)[C@H]1O`, the Activity in the assay on Staphylococcus aureus is 70%. Also, in assay [1], the half-inhibitory concentration (IC50) is 1700 µM. With `CC1(C)O[C@@H]2[C@H](O1)[C@@H](CCNS(=O)(=O)NC(=O)OCCc1ccc(Cl)c(Cl)c1)O[C@H]2n1cnc2c(N)ncnc21`, the Activity in the assay with Staphylococcus aureus came out at 89%. On the same count and under the same terms, next, `CC1(C)O[C@@H]2[C@H](O1)[C@@H](CCN)O[C@H]2n1cnc2c(N)ncnc21`: 82%; `CC1CN(C(=O)OC(C)(C)C)CCN1CCOC(=O)NS(=O)(=O)NCC[C@H]1O[C@@H](n2cnc3c(N)ncnc32)[C@H](O)[C@@H]1O` (stereo partly drawn): 95%.

What is called IC50 is the point on the concentration scale where inhibition reaches its midpoint.
